Results reported in US11524021B2, “Use of ginsenoside M1 for manufacturing medicament for treating oral cancer” (priority 2018, dated 2022).

Key:
[1] = system: human oral cancer cells OECM-1; assay: Apoptotic DNA breaks, TUNEL assay by flow cytometry; format: cell-based; conditions: 24 h
Experimental: Human oral cancer cell line OECM-1 cells were incubated for 24 h with ginsenoside M1 (10˜20 μg/ml), 50 μM cistaplatin (CDDP) or vehicle (0.1% DMSO). (FIG. 3A) The apoptotic DNA breaks was assayed by terminal deoxynucleotidyl transferase dUTP nick end labeling (TUNEL) assay using flow cytometry. (FIG. 3B) The cell cycle distribution was determined by PI staining using flow cytometry. (FIG. 3C) The apoptosis level was measured by PI/Annexin V double staining assay using flow cytometry. (FIG. 3D) The activation levels of caspase-9 and caspase-3 were measured by detecting the degradation of pro-caspase-9 and pro-caspase-3 using Western blotting. […] (One-way ANOVA with Dunnett's multiple comparisons test).
To gain further insight into the mode of action of ginsenoside M1, three assays targeting hallmarks of apoptosis, namely (1) the apoptotic DNA breaks assayed by terminal deoxynucleotidyl transferase dUTP nick end labeling (TUNEL) assay, (2) the cell cycle assayed by flow cytometry after propidium iodide (PI)-staining nuclei, (3) the PI/Annexin V double staining assay, and (4) caspase activation were performed. Plate 1×10^6 human oral cancer cells OECM-1 per 6-cm dish in 2 ml of culture medium and were grown overnight at 37° C. in a 5% CO2 incubator. The cells were incubated for 24 h with ginsenoside M1 (10˜20 μg/ml), 50 μM cistaplatin (CDDP) or vehicle. Each group contains a final DMSO concentration of 0.1%. Thereafter, three assays were performed. […] The cells in sub-G1 phase increased after treatment with ginsenoside M1 and CDDP. (FIG. 3B). […] The data were expressed as mean±SD; n=3. ** and *** indicate a significant difference at the level of p<0.01 and p<0.001, respectively, compared to vehicle-control cells. (One-way ANOVA with Dunnett's multiple comparisons test).

[2] = system: human oral cancer cells SAS xenografts; assay: Tumor growth in human oral cancer SAS xenograft mice; format: in vivo, BALB/c nude (nu/nu) mice; conditions: 5 successive days
Experimental: FIGS. 6A-6C show oral administration of ginsenoside M1 reduced human oral cancer growth in mice. Human oral cancer cell line SAS cells Xenografts mice with tumor size around 40˜60 mm^3 were given a daily oral administration of either ginsenoside M1 (30-90 mg/kg) or vehicle for 5 successive days. (FIG. 6A) The tumor volume was determined by measurement of the length (L) and width (W) of the tumor and calculated as tumor volume (mm3)=(L×W^2)/2. (FIG. 6B) The tumor weight was measured after the mice were scarified. (FIG. 6C) The body weight of mice was recorded. The data were expressed as mean±SD; n=6. ** and *** indicate a significant difference at the level of p<0.01 and p<0.001, respectively, compared to vehicle-control mice. (One-way ANOVA with Dunnett's multiple comparisons test).
FIGS. 7A-7C show subcutaneous (SC) injection of ginsenoside M1 reduced human oral cancer growth in mice. Human oral cancer cell line SAS cells Xenografts mice with tumor size around 40˜60 mm^3 were given a daily SC injection of either ginsenoside M1 (20 mg/kg) or vehicle for 5 successive days. (FIG. 7A) The tumor volume was determined by measurement of the length (L) and width (W) of the tumor and calculated as tumor volume (mm3)=(L×W^2)/2. (FIG. 7B) The tumor weight was measured after the mice were scarified. (FIG. 7C) The body weight of mice was recorded. The data were expressed as mean±SD; n=6. ** indicates a significant difference at the level of p<0.01, compared to vehicle-control mice. (One-way ANOVA with Dunnett's multiple comparisons test).
To evaluate the anti-cancer activity of ginsenoside M1 in vivo, human oral cancer xenografts were used. Six-week-old male congenital athymic BALB/c nude (nu/nu) mice were purchased from BioLASCO Taiwan Co., Ltd (Ilan, Taiwan), and housed in a room under controlled temperature (23±3° C.) and relative humidity (50±5%). Animal experiments were performed with the approval of the Institutional Animal Care and Use Committee of the National Ilan University (approval number: No. 106-13) according to the NIH Guide for the Care and Use of Laboratory Animals. Xenografts mice were established by subcutaneous (SC) injection of 2×10^6 human oral cancer cells SAS (in 75 μl PBS+75 μl Matrigel) on the backs of the nude mice. After the tumor has reached about 40˜60 mm^3 in size, the mice were randomized into six groups (six mice each): (1) oral vehicle control; (2) oral 30 mg/kg ginsenoside M1; (3) oral 60 mg/kg ginsenoside M1; (4) oral 90 mg/kg ginsenoside M1; (5) SC vehicle control; (6) SC 20 mg/kg ginsenoside M1. The mice were given a daily oral administration or SC injection of either vehicle or ginsenoside M1 for 5 successive days. The mice were scarified at 24 h after received the last dose of ginsenoside M1 or vehicle. The tumor volume (TV) was determined by measurement of the length (L) and width (W) of the tumor. The TV on day n (TVn) was calculated as TV (mm3)=(L×W^2)/2. The relative tumor volume on day n (RTVn) versus day 0 was expressed according to the following formula: RTVn=TVn/TV0. […] The data were expressed as mean±SD; n=6. ** and *** indicate a significant difference at the level of p<0.01 and p<0.001, respectively, compared to vehicle-control mice. (One-way ANOVA with Dunnett's multiple comparisons test).

CC(C)=CCC[C@](C)(O[C@@H]1OC(CO)[C@@H](O)[C@@H](O)C1O)[C@H]1CC[C@]2(C)C1[C@H](O)CC1[C@@]3(C)CC[C@H](O)C(C)(C)C3CC[C@]12C (stereo partly drawn) [ginsenoside M1, 20-O-β-D-glucopyranosyl-20(S)-protopanaxadiol]
apoptotic DNA breaks in OECM-1 cells ([1]; 10 μg/ml): not 10 μg/ml ginsenoside M1 significantly induced
apoptotic DNA breaks in OECM-1 cells ([1]; 20 μg/ml): significantly induced
tumor size compared to vehicle control group ([2]; SC injection 20 mg/kg daily): significantly reduced
tumor weight compared to vehicle control group ([2]; SC injection 20 mg/kg daily): significantly reduced
tumor size compared to vehicle control group ([2]; oral 30 mg/kg daily): did not significant reduce
tumor weight compared to vehicle control group ([2]; oral 30 mg/kg daily): did not significant reduce
tumor size compared to vehicle control group ([2]; oral 60 mg/kg daily): did not significant reduce
tumor weight compared to vehicle control group ([2]; oral 60 mg/kg daily): did not significant reduce
tumor size compared to vehicle control group ([2]; oral 90 mg/kg daily): significantly reduced
